{"source": "patent US12582146B2", "about": "“Angiotensin-converting enzyme inhibitor, blood pressure-lowering agent, and beverages and food products” (priority 2019, dated 2026)", "target": "angiotensin-converting enzyme (ACE) (UniProt P12822)", "sequence (P12822 whole entry)": "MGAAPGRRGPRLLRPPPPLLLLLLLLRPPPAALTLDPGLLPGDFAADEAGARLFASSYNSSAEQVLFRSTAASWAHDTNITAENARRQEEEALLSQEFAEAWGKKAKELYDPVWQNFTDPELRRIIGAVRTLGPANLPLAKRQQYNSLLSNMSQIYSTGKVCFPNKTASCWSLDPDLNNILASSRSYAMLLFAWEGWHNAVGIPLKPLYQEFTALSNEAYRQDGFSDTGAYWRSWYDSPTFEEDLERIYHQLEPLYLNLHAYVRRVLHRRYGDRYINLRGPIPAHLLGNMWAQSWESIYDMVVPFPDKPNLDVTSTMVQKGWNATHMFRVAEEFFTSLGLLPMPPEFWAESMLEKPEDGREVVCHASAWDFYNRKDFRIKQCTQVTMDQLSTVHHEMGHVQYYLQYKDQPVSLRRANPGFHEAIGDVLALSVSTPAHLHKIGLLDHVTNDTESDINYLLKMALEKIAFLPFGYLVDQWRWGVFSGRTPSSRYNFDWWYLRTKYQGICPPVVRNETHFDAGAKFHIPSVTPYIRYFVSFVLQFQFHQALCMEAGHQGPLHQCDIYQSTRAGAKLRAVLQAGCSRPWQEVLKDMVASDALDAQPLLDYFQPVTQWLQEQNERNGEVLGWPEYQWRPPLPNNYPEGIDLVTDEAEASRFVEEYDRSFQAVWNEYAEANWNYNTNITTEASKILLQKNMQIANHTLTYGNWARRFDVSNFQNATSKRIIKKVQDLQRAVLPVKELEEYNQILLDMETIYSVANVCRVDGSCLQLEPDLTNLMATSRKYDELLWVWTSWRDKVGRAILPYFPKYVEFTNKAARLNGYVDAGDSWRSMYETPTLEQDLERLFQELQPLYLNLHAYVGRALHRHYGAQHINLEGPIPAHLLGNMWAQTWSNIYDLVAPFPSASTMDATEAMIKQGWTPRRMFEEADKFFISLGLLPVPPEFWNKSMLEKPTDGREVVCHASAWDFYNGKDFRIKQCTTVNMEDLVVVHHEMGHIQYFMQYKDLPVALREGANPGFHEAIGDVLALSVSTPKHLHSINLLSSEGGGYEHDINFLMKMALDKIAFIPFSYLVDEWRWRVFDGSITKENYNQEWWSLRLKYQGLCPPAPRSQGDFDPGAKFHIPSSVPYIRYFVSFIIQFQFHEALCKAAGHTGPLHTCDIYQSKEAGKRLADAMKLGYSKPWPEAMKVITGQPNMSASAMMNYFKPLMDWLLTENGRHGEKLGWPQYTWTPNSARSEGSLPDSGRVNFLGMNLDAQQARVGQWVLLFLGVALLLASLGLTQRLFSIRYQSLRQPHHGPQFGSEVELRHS", "test": "Test of effect of inhibiting angiotensin-converting enzyme (Hippuryl-His-Leu substrate, hippuric acid measured by HPLC)", "type": "biochemical", "method": "[Test Example 1] Test of Effect of Inhibiting Angiotensin-Converting Enzyme Conducted on Compound (I)\nThe effect of inhibiting an angiotensin-converting enzyme was tested on the compound (I) (sample 1) as explained below.\nA sample solution (sample 1), obtained by suitably dissolving in and diluting with distilled water, and distilled water respectively in an amount of 50 μL were dispensed into test tubes (10 mL). A substrate solution was dispensed respectively in an amount of 250 μL and mixed. The test tubes were preheated in a thermostatic water-tank at 37° C. for 5 minutes. The preheated test tubes were added with an ACE solution in an amount of 100 μL, agitated immediately and brought to react in the thermostatic water-tank at 37° C. for 45 minutes. After the reaction finished, 3% metaphosphate solution in an amount of 3.6 mL was added and agitated to end reaction. The inactivated solution was subjected to HPLC analysis and isolated hippuric acid was measured. Based on a hippuric acid peak area and solid amount (concentration and weighed amount) from the HPLC, an ACE inhibition rate (%) was obtained.\nA substrate solution was prepared to obtain a boric acid buffering solution (pH 8.3) with 8 mM substrate (Hippuryl-His-Leu produced by PEPTIDE INSTITUTE, INC.) and 640 mM sodium chloride. An ACE solution was prepared to obtain a boric acid buffering solution with 30 mU/mL ACE (produced by Sigma-Aldrich Co. LLC).\n<Liquid Chromatography Condition >\nColumn: Wakosil-II 5C18 HG (4.5mm I.D.×150mm produced by Wako Pure Chemical Industries, Ltd.)\n• Column Temperature: 40° C. • Mobile Phase: 20 mM KH2PO4·H3PO4 (pH 3.0): Methanol (57:43, v/v) • Flow Rate: 1.0 mL/min. • Detection Wavelength: 228 nm • Feed Amount: 20 μL"}
{"molecule": "COc1cc(CCC(=O)O)ccc1O", "note": "[compound (I), 3-(4-hydroxy-3-methoxyphenyl)propionic acid]", "values": [{"measurement": "IC50", "setting": "37° C., 45 minutes reaction, read-out: IC50 (concentration of the sample in the reaction solution exhibiting an ACE inhibition rate of 50%) (converted)", "value": 10.9, "unit": "mM"}, {"measurement": "ACE Inhibition Rate", "setting": "sample concentration 943.25 μg/mL", "value": 21.6, "unit": "%"}, {"measurement": "ACE Inhibition Rate", "setting": "sample concentration 1886.50 μg/mL", "value": 41.1, "unit": "%"}, {"measurement": "ACE Inhibition Rate", "setting": "sample concentration 3773.00 μg/mL", "value": 73.2, "unit": "%"}]}
